Two molecules from paper PMC4220862 (Inorganic Chemistry, 2014) can be followed below.

For experiment [1], the target named is T1, amyloid β peptide (Aβ40 fibrils) (Homo sapiens, UniProt P05067). The experiment is described as follows: direct fluorescence titration of Aβ[…] fibrils, one-site fit. The experiment is classed as binding.
The target in experiment [2] is T1, amyloid β peptide (Aβ40 fibrils). The experiment is described as follows: ThT fluorescence competition assay with Aβ[…] fibrils. The format is binding.

T1 sequence (P05067 672-711): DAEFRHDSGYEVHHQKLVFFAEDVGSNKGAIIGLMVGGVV

In turn, `CCN(CC)c1ccc(-c2nc3ccccc3s2)c(O)c1` [L1, 2-[2-hydroxy-4-(diethylamino)phenyl]benzothiazole] yielded a Kd in experiment [1] of 4.7 ± 0.3 µM.

Take `COc1cccc(-c2nc3ccccc3s2)c1O` [L2, 2-(2-hydroxy-3-methoxyphenyl)benzothiazole]: the Ki in experiment [2] is 0.015 ± 0.01 µM.

As usually defined, the Kd is the equilibrium constant for the complex coming apart. In general, Ki refers to a measure of affinity in units of concentration, obtained from inhibition or displacement.
